The values that follow come from patent US12552829B2, “Compositions and methods for treating CNS disorders” (SAGE THERAPEUTICS, INC., priority 2019, dated 2026).

The target of the assay is [35S]-TBPS binding, rat brain cortical membranes (GABAA receptor). As to the kind of experiment: Steroid inhibition of [35S]-TBPS binding. As to conditions: 3 nM [35S]-TBPS, in the presence of 5 mM GABA, 90 min at room temp. As for the experimental part: [^35S]-t-Butylbicyclophosphorothionate (TBPS) binding assays using rat brain cortical membranes in the presence of 5 mM GABA has been described (Gee et al, J. Pharmacol. Exp. Ther. 1987, 241, 346-353; Hawkinson et al, Mol. Pharmacol. 1994, 46, 977-985; Lewin, A. H et al., Mol. Pharmacol. 1989, 35, 189-194).
Briefly, cortices are rapidly removed following decapitation of carbon dioxide-anesthetized Sprague-Dawley rats (200-250 g). The cortices are homogenized in 10 volumes of ice-cold 0.32 M sucrose using a glass/teflon homogenizer and centrifuged at 1500×g for 10 min at 4° C. The resultant supernatants are centrifuged at 10,000×g for 20 min at 4° C. to obtain the P2 pellets. The P2 pellets are resuspended in 200 mM NaCl/50 mM Na-K phosphate pH 7.4 buffer and centrifuged at 10,000×g for 10 min at 4° C. This washing procedure is repeated twice and the pellets are resuspended in 10 volumes of buffer. Aliquots ([…]) of the membrane suspensions are incubated with 3 nM [^35S]-TBPS and […] aliquots of test drug dissolved in dimethyl sulfoxide (DMSO) (final 0.5%) in the presence of 5 mM GABA. The incubation is brought to a final volume of 1.0 mL with buffer. Nonspecific binding is determined in the presence of […] and ranged from 15 to 25%. Following a 90 min incubation at room temp, the assays are terminated by filtration through glass fiber filters (Schleicher and Schuell No. 32) using a cell harvester (Brandel) and rinsed three times with ice-cold buffer. Filter bound radioactivity is measured by liquid scintillation spectrometry. Non-linear curve fitting of the overall data for each drug averaged for each concentration is done using Prism (GraphPad). […] The concentration of test compound producing 50% inhibition (IC50) of specific binding and the maximal extent of inhibition (Imax) are determined for the individual experiments with the same model used for the overall data and then the means±SEM.s of the individual experiments are calculated.
Various compounds are or can be screened to determine their potential as modulators of [^35S]-TBPS binding in vitro. These assays are or can be performed in accordance with the above.
For the compound `C[C@H]1[C@H]2[C@@H]3CC[C@@H]4C[C@](C)(O)CC[C@@H]4[C@H]3CC[C@]2(C)[C@@H]([C@](C)(O)Cn2cc(C#N)cn2)C[C@@H]1C` [Example 26, 1-((S)-2-hydroxy-2-((1S,3S,4R,4aS,4bR,6aR,8R,10aS,10bR,12aS)-8-hydroxy-3,4,8,12a-tetramethyloctadecahydrochrysen-1-yl)propyl)-1H-pyrazole-4-carbonitrile], the half-maximal inhibitory concentration (IC50) was less than 100 nM.

As for `CCC[C@@]1(O)CC[C@H]2[C@H](CC[C@@H]3[C@@H]2CC[C@@]2(C)[C@H]3CCC[C@@H]2[C@](C)(O)Cn2cc(C#N)cn2)C1` [Example 9, 1-((S)-2-hydroxy-2-((1S,4aS,4bR,6aR,8R,10aS,10bR,12aS)-8-hydroxy-12a-methyl-8-propyloctadecahydrochrysen-1-yl)propyl)-1H-pyrazole-4-carbonitrile], the IC50 was less than 100 nM.

Take `CCC[C@@]1(O)CC[C@H]2[C@@H](CC[C@@H]3[C@@H]2CC[C@@]2(C)[C@H]3CCC[C@@H]2[C@@](C)(O)Cn2cc(C#N)cn2)C1` [Example 2, 1-((R)-2-hydroxy-2-((1S,4aS,4bR,6aS,8R,10aS,10bR,12aS)-8-hydroxy-12a-methyl-8-propyloctadecahydrochrysen-1-yl)propyl)-1H-pyrazole-4-carbonitrile]: the concentration for half-maximal inhibition (IC50) lay within 100 to 1000 nM.

As to `C[C@@]1(O)CC[C@@]2(C)[C@H](CC[C@@H]3[C@@H]2CC[C@@]2(C)[C@H]3CCC[C@@H]2[C@@](C)(O)Cn2cc(C#N)cn2)C1` [Example 15, 1-((R)-2-hydroxy-2-((1S,4aS,4bR,6aR,8R,10aS,10bS,12aS)-8-hydroxy-8,10a,12a-trimethyloctadecahydrochrysen-1-yl)propyl)-1H-pyrazole-4-carbonitrile], the half-inhibitory concentration (IC50) lay within 100 to 1000 nM.

`C[C@]1(O)CCC2=CC[C@H]3[C@@H]4CC[C@H]([C@](C)(O)Cn5cc(C#N)cn5)[C@@]4(C)CC[C@@H]3[C@@]2(C)CC1` [Example 18, 1-((S)-2-hydroxy-2-((1S,3aS,3bS,8S,10aR,10bS,12aS)-8-hydroxy-8,10a,12a-trimethyl-1,2,3,3a,3b,4,6,7,8,9,10,10a,10b,11,12,12a-hexadecahydrocyclohepta[a]cyclopenta[f]naphthalen-1-yl)propyl)-1H-pyrazole-4-carbonitrile]: the IC50 was 100 to 1000 nM.

With `CC[C@@]1(O)CC[C@H]2[C@H](CC[C@@H]3[C@@H]2CC[C@@]2(C)[C@H]3CCC[C@@H]2[C@](C)(O)Cn2cc(C#N)cn2)C1` [Example 7, 1-((S)-2-((1S,4aS,4bR,6aR,8R,10aS,10bR,12aS)-8-ethyl-8-hydroxy-12a-methyloctadecahydrochrysen-1-yl)-2-hydroxypropyl)-1H-pyrazole-4-carbonitrile], the IC50 lay in the range of 100 to 1000 nM.

With `C[C@H]1[C@H]2[C@@H]3CC[C@@H]4C[C@](C)(O)CC[C@@H]4[C@H]3CC[C@]2(C)[C@@H]([C@@](C)(O)Cn2cc(C#N)cn2)C[C@@H]1C` [Example 27, 1-((R)-2-hydroxy-2-((1S,3S,4R,4aS,4bR,6aR,8R,10aS,10bR,12aS)-8-hydroxy-3,4,8,12a-tetramethyloctadecahydrochrysen-1-yl)propyl)-1H-pyrazole-4-carbonitrile], the IC50 is less than 100 nM.

For `C[C@@H]1CC[C@H]([C@@](C)(O)Cn2cc(C#N)cn2)[C@@]2(C)CC[C@H]3[C@@H](CC[C@@H]4C[C@](C)(O)CC[C@@H]43)[C@H]12` [Example 24, 1-((R)-2-hydroxy-2-((1S,4R,4aS,4bR,6aR,8R,10aS,10bR,12aS)-8-hydroxy-4,8,12a-trimethyloctadecahydrochrysen-1-yl)propyl)-1H-pyrazole-4-carbonitrile], the IC50 is less than 100 nM.

`C[C@]1(O)CCC2=CC[C@H]3[C@@H]4CC[C@H]([C@@](C)(O)Cn5cc(C#N)cn5)[C@@]4(C)CC[C@@H]3[C@@]2(C)CC1` [Example 19, 1-((R)-2-hydroxy-2-((1S,3aS,3bS,8S,10aR,10bS,12aS)-8-hydroxy-8,10a,12a-trimethyl-1,2,3,3a,3b,4,6,7,8,9,10,10a,10b,11,12,12a-hexadecahydrocyclohepta[a]cyclopenta[f]naphthalen-1-yl)propyl)-1H-pyrazole-4-carbonitrile]: the concentration for half-maximal inhibition (IC50) is less than 100 nM.

With `C[C@@H]1CC[C@H]([C@](C)(O)Cn2cc(C#N)cn2)[C@@]2(C)CC[C@H]3[C@@H](CC[C@@H]4C[C@](C)(O)CC[C@@H]43)[C@H]12` [Example 25, 1-((S)-2-hydroxy-2-((1S,4R,4aS,4bR,6aR,8R,10aS,10bR,12aS)-8-hydroxy-4,8,12a-trimethyloctadecahydrochrysen-1-yl)propyl)-1H-pyrazole-4-carbonitrile], the IC50 is less than 100 nM.

Consider `C[C@@]1(O)CCC[C@H]2[C@H](CC[C@@H]3[C@@H]2CC[C@@]2(C)[C@H]3CC[C@@H]2[C@](C)(O)Cn2cc(C#N)cn2)C1` [Example 20, 1-((S)-2-hydroxy-2-((1S,3aS,3bR,5aR,7R,10aS,10bR,12aS)-7-hydroxy-7,12a-dimethyloctadecahydrocyclohepta[a]cyclopenta[f]naphthalen-1-yl)propyl)-1H-pyrazole-4-carbonitrile], for which the half-maximal inhibitory concentration (IC50) was less than 100 nM.

For `COC[C@@]1(O)CC[C@H]2[C@H](CC[C@@H]3[C@@H]2CC[C@@]2(C)[C@H]3[C@H](C)CC[C@@H]2[C@@](C)(O)Cn2cc(C#N)cn2)C1` (single isomer, unassigned) [Example 32], the half-maximal inhibitory concentration (IC50) was less than 100 nM.

Take `CCC[C@@]1(O)CC[C@H]2[C@H](CC[C@@H]3[C@@H]2CC[C@@]2(C)[C@H]3[C@H](C)CC[C@@H]2[C@@](C)(O)Cn2cc(C#N)cn2)C1` (single isomer, unassigned) [Example 34]: the half-maximal inhibitory concentration (IC50) was less than 100 nM.

On to `C[C@@]1(O)CCC[C@H]2[C@H](CC[C@@H]3[C@@H]2CC[C@@]2(C)[C@H]3CC[C@@H]2[C@@](C)(O)Cn2cc(C#N)cn2)C1` [Example 21, 1-((R)-2-hydroxy-2-((1S,3aS,3bR,5aR,7R,10aS,10bR,12aS)-7-hydroxy-7,12a-dimethyloctadecahydrocyclohepta[a]cyclopenta[f]naphthalen-1-yl)propyl)-1H-pyrazole-4-carbonitrile], for which the half-maximal inhibitory concentration (IC50) lay in the range of 100 to 1000 nM.

Consider `CC[C@@]1(O)CC[C@H]2[C@@H](CC[C@@H]3[C@@H]2CC[C@@]2(C)[C@H]3CCC[C@@H]2[C@@](C)(O)Cn2cc(C#N)cn2)C1` [Example 11, 1-((R)-2-((1S,4aS,4bR,6aS,8R,10aS,10bR,12aS)-8-ethyl-8-hydroxy-12a-methyloctadecahydrochrysen-1-yl)-2-hydroxypropyl)-1H-pyrazole-4-carbonitrile], for which the half-maximal inhibitory concentration (IC50) fell in the range of 100 to 1000 nM.

On to `CCC[C@@]1(O)CC[C@H]2[C@@H](CC[C@@H]3[C@@H]2CC[C@@]2(C)[C@H]3CCC[C@@H]2[C@](C)(O)Cn2cc(C#N)cn2)C1` [Example 1, 1-((S)-2-hydroxy-2-((1S,4aS,4bR,6aS,8R,10aS,10bR,12aS)-8-hydroxy-12a-methyl-8-propyloctadecahydrochrysen-1-yl)propyl)-1H-pyrazole-4-carbonitrile], for which the half-maximal inhibitory concentration (IC50) was in the range of 100 to 1000 nM.

Regarding `CCC[C@@]1(O)CC[C@@]2(C)[C@@H](CC[C@@H]3[C@@H]2CC[C@@]2(C)[C@H]3CCC[C@@H]2[C@@](C)(O)Cn2cc(C#N)cn2)C1` [Example 17, 1-((R)-2-hydroxy-2-((1S,4aS,4bR,6aS,8R,10aS,10bS,12aS)-8-hydroxy-10a,12a-dimethyl-8-propyloctadecahydrochrysen-1-yl)propyl)-1H-pyrazole-4-carbonitrile], the IC50 is no less than 1000 nM.

In the case of `C[C@]1(O)CC[C@@H]2CC[C@@H]3[C@H](CC[C@@]4(C)[C@H]3CC[C@@H]4[C@@](C)(O)Cn3cc(C#N)cn3)[C@@]2(C)CC1` [Example 23, 1-((R)-2-hydroxy-2-((1S,3aS,3bR,5aS,8S,10aS,10bS,12aS)-8-hydroxy-8,10a,12a-trimethyloctadecahydrocyclohepta[a]cyclopenta[f]naphthalen-1-yl)propyl)-1H-pyrazole-4-carbonitrile], the IC50 is 100 to 1000 nM.

By IC50 is commonly meant the concentration that gives 50% inhibition.
